Test results: article PMC10714399, “Open Source Antibiotics: Simple Diarylimidazoles Are Potent against Methicillin-Resistant Staphylococcus aureus” (ACS Infectious Diseases, 2023)
≈ marks a conversion by molar mass, not a printed value. Like-named read-outs stand apart in the source and are kept apart here.

Legend:
[1] = test system: Staphylococcus aureus NCTC 13373 (mecA-positive; methicillin-resistant); assay: In vitro antibacterial activity, MIC (UCL School of Pharmacy assay), MRSA; format: cell-based; details: for MIC: Staphylococcus aureus
How it was run: (§1)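 Strains: MRSA NCTC 13373, MSSA ATCC 25923, vanA E. faecalis ATCC 51299. Overnight agar growth suspended in PBS, A600 0.1, diluted 1:100 into isosensitest broth; 2-fold compound dilutions 32–0.03 μg/mL, ≤2% DMSO. Vancomycin QC.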

[2] = test system: Enterococcus faecalis ATCC 51299 (vanA-positive; vancomycin-resistant); assay: In vitro antibacterial activity, MIC (UCL), VRE; format: cell-based
How it was run: as §1

Aqueous solubility = format: physicochemical; details: for solubility: thermodynamic from solid
Description: To guide our initial SAR exploration work, we obtained liver microsomal intrinsic clearance data for 5 of the 18 compounds assayed by CO-ADD (Supporting Information - CDCO Report and Supporting Information - Biology). We then acquired intrinsic clearance (CLint), plasma protein binding (PPB), and solubility data on further compounds throughout the SAR campaign (Supporting Information - Biology, Tables S3 and S4). […] The more polar compounds (lower LogD) had reduced PPB and were more metabolically stable.
(§2) Table S4. ADME and Pharmacokinetics: compounds only appearing in the Supplementary […]
(§3) MRSA Aqueous HLM CLint Rat Hep CLint
(§4) Cmpd MIC Solubility Human PPB (%) (µL/min/mg (µL/min/10x6 LogD7.4
(§5) (µg/mL) (µM) protein) cells)
(§6) ADME and toxicity for compounds were measured according to procedures outlined in the manuscript submitted in parallel to this one;2 other procedures were used for those compounds analysed by Monash University (in vitro ADME) or UCL (toxicity), both described in the main

[3] = Human plasma protein binding (PPB); format: in vitro ADME; details: human, plasma
Description: (§7) To guide our initial SAR exploration work, we obtained liver microsomal intrinsic clearance data for 5 of the 18 compounds assayed by CO-ADD (Supporting Information - CDCO Report and Supporting Information - Biology). We then acquired intrinsic clearance (CLint), plasma protein binding (PPB), and solubility data on further compounds throughout the SAR campaign (Supporting Information - Biology, Tables S3 and S4).
as §2, §3, §4, §5, §6

[4] = Human liver microsome intrinsic clearance; format: in vitro ADME
Description: as §7, §2, §3, §4, §5, §6

[5] = Rat hepatocyte intrinsic clearance; format: in vitro ADME; details: for hepatocyte CLint: rat, hepatocytes, Figure 4, read-out: Rat Hep CLint
Description: as §7, §2, §3, §4, §5, §6

[6] = test system: MRC-5SV2 (human lung fibroblast cell line); assay: Toxicity against MRC-5SV2; format: cell-based; details: MRC5 cells
Protocol: as §6

[7] = test system: PMM (primary mouse macrophages); assay: Toxicity against PMM; format: cell-based; details: PMM
Protocol: as §6

[8] = test system: S. aureus ATCC 25923 (methicillin-susceptible); assay: In vitro antibacterial activity, MIC (UCL), MSSA; format: cell-based, Staphylococcus aureus; details: Staphylococcus aureus
How it was run: as §1

[9] = human plasma, NEU, read-out: Human PPB (NEU) (converted)
[10] = read-out: Human PPB (converted)
[11] = human, liver microsomes, read-out: HLM CLint
[12] = NEU, read-out: Aqueous Solubility (NEU)
[13] = human liver microsomes, NEU, read-out: HLM CLint (NEU)

N#Cc1ccc(-c2c(-c3ccccn3)nc3n2CCC3)cc1 [OSA_000975]
MIC ([1]; UCL, read-out: MRSA MIC (UCL)): 4 µg/mL (≈ 14 µM)
MIC ([2]; read-out: VRE MIC (UCL)): 16 mg/L (≈ 55.9 µM)
Aqueous Solubility (NEU) (Aqueous solubility; NEU): 38 µM
fraction unbound [3, 9]: 0.29
HLM CLint (NEU) ([4]; human liver microsomes, NEU): 99.1 uL/min/mg protein
Rat Hep CLint (NEU) ([5]; rat hepatocytes, NEU): 7.99 uL/min/10x6 cells
MRC5 TC50 [6]: 25.9 µM
PMM TC50 [7]: 64 µM

CN(C)C(=O)c1ccc(-c2c(-c3ccccn3)nc3n2CCC3)cc1 [compound 974]
activity against MRSA, in words [1]: not tolerated
MIC ([1]; 16 h, read-out: MRSA MIC): > 32 µg/mL
MIC ([1]; read-out: MRSA MIC): > 32 µg/mL
MIC ([2]; read-out: VRE MIC): > 32 mg/L
solubility (Aqueous solubility; read-out: Aqueous Solubility): 782 µM (≈ 260 µg/mL)
fraction unbound [3, 10]: 0.55
microsomal CLint [4, 11]: < 3 µL/min/mg
hepatocyte CLint [5]: < 1 µL/min/1e6 cells

Cc1cccc(-c2c(-c3ccccn3)nc3n2CCC3)c1 [OSA_000976]
MIC ([1]; UCL, read-out: MRSA MIC (UCL)): 8 µg/mL (≈ 29.1 µM)
MIC ([2]; read-out: VRE MIC (UCL)): 32 mg/L (≈ 116 µM)
solubility (Aqueous solubility; [12]): 556 µM (≈ 153 µg/mL)
fraction unbound [3, 9]: 0.061
HLM CLint (NEU) ([4]; human liver microsomes, NEU): 76.1 uL/min/mg protein
Rat Hep CLint (NEU) ([5]; rat hepatocytes, NEU): 62.5 uL/min/10x6 cells

Fc1ccc(N(CC2CC2)c2c(-c3ccccn3)nc3ccccn23)cc1 [OSA_000979]
MIC ([1]; UCL, read-out: MRSA MIC (UCL)): 2 µg/mL (≈ 5.58 µM)
MIC ([8]; read-out: MSSA MIC (UCL)): 2 µg/mL (≈ 5.58 µM)
MIC ([2]; read-out: VRE MIC (UCL)): 4 mg/L (≈ 11.2 µM)
solubility (Aqueous solubility; [12]): 2 µM (≈ 0.717 µg/mL)
fraction unbound [3, 9]: 0.0067
microsomal CLint [4, 13]: 105 µL/min/mg
Rat Hep CLint (NEU) ([5]; rat hepatocytes, NEU): 141 uL/min/10x6 cells
MRC5 TC50 [6]: 7.8 µM
PMM TC50 [7]: 4 µM

N#Cc1cccc(-c2c(-c3ccccn3)nc3n2CCC3)c1 [OSA_000864]
MIC ([1]; UCL, read-out: MRSA MIC (UCL)): > 32 µg/mL
MIC ([2]; read-out: VRE MIC (UCL)): > 32 mg/L
solubility (Aqueous solubility; [12]): 37 µM (≈ 10.6 µg/mL)
fraction unbound [3, 9]: 0.24
HLM CLint (NEU) ([4]; human liver microsomes, NEU): 43.7 uL/min/mg protein
Rat Hep CLint (NEU) ([5]; rat hepatocytes, NEU): 23.2 uL/min/10x6 cells

CC(=O)N(c1ccc(F)cc1)c1c(-c2ccccn2)nc2ccccn12 [OSA_001021]
MIC ([1]; UCL assay, read-out: MRSA MIC (ug/mL) (UCL)): > 32 µg/mL
MIC ([8]; UCL assay, read-out: MSSA MIC (ug/mL) (UCL)): > 32 µg/mL
solubility (Aqueous solubility; NEU, read-out: Aqueous Solubility (uM) (NEU)): 10 µM (≈ 3.46 µg/mL)
fraction unbound ([3]; human plasma, NEU, read-out: Human PPB (%) (NEU) (converted)): 0.17
HLM CLint (uL/min/mg protein) (NEU) ([4]; human liver microsomes, NEU): 19.8 uL/min/mg protein
Rat Hep CLint (uL/min/10x6 cells) (NEU) ([5]; rat hepatocytes, NEU): 81.2 uL/min/10x6 cells
MRC5 TC50 [6]: 64 µM
PMM TC50 [7]: 64 µM

CN(C)C(=O)c1ccc(-c2c(-c3ccccn3)nc3n2CCC3)cc1 [OSA_000974]
MIC ([1]; UCL, read-out: MRSA MIC (UCL)): > 32 µg/mL
MIC ([2]; read-out: VRE MIC (UCL)): > 32 mg/L
Aqueous Solubility (NEU) (Aqueous solubility; NEU): 782 µM
fraction unbound [3, 9]: 0.55
HLM CLint (NEU) ([4]; human liver microsomes, NEU): <3 uL/min/mg protein
Rat Hep CLint (NEU) ([5]; rat hepatocytes, NEU): <1 uL/min/10x6 cells

C[S+]([O-])c1ccc(-c2c(-c3ccccn3)nc3n2CCC3)cc1 (centres unmarked) [compound 838]
MIC ([1]; 16 h, read-out: MRSA MIC): > 32 µg/mL
MIC ([1]; read-out: MRSA MIC): > 32 µg/mL
MIC ([2]; read-out: VRE MIC): > 32 mg/L
solubility (Aqueous solubility; read-out: Aqueous Solubility): 756 µM (≈ 245 µg/mL)
fraction unbound [3, 10]: 0.45
microsomal CLint [4, 11]: < 3 µL/min/mg
hepatocyte CLint [5]: < 1 µL/min/1e6 cells

Clc1ccc(-c2c(-c3ccccn3)nc3n2CCC3)cc1Cl [OSA_000876]
MIC ([1]; UCL, read-out: MRSA MIC (UCL)): 8 µg/mL (≈ 24.2 µM)
MIC ([2]; read-out: VRE MIC (UCL)): 8 mg/L (≈ 24.2 µM)
solubility (Aqueous solubility; [12]): 3 µM (≈ 0.991 µg/mL)
fraction unbound [3, 9]: 0.015
HLM CLint (NEU) ([4]; human liver microsomes, NEU): 100 uL/min/mg protein
Rat Hep CLint (NEU) ([5]; rat hepatocytes, NEU): 37.7 uL/min/10x6 cells

CS(=O)(=O)c1ccc(-c2c(-c3ccccn3)nc3n2CCC3)cc1 [OSA_000837]
MIC ([1]; UCL, read-out: MRSA MIC (UCL)): > 32 µg/mL
MIC ([2]; read-out: VRE MIC (UCL)): > 32 mg/L
Aqueous Solubility (NEU) (Aqueous solubility; NEU): 317 µM
fraction unbound [3, 9]: 0.4
HLM CLint (NEU) ([4]; human liver microsomes, NEU): <3 uL/min/mg protein
Rat Hep CLint (NEU) ([5]; rat hepatocytes, NEU): <1 uL/min/10x6 cells

C[S+]([O-])c1ccc(-c2c(-c3ccccn3)nc3n2CCC3)cc1 (centres unmarked) [OSA_000838]
MIC ([1]; UCL, read-out: MRSA MIC (UCL)): > 32 µg/mL
MIC ([2]; read-out: VRE MIC (UCL)): > 32 mg/L
Aqueous Solubility (NEU) (Aqueous solubility; NEU): 756 µM
fraction unbound [3, 9]: 0.45
HLM CLint (NEU) ([4]; human liver microsomes, NEU): <3 uL/min/mg protein
Rat Hep CLint (NEU) ([5]; rat hepatocytes, NEU): <1 uL/min/10x6 cells

CS(=O)(=O)c1ccc(-c2c(-c3ccccn3)nc3n2CCC3)cc1 [compound 837]
activity against MRSA, in words [1]: not tolerated
MIC ([1]; 16 h, read-out: MRSA MIC): > 32 µg/mL
MIC ([1]; read-out: MRSA MIC): > 32 µg/mL
MIC ([2]; read-out: VRE MIC): > 32 mg/L
solubility (Aqueous solubility; read-out: Aqueous Solubility): 317 µM (≈ 108 µg/mL)
fraction unbound [3, 10]: 0.4
microsomal CLint [4, 11]: < 3 µL/min/mg
hepatocyte CLint [5]: < 1 µL/min/1e6 cells

Clc1ccc(-c2c(-c3ccccn3)nc3n2CCC3)cc1 [OSA_000875]
MIC ([1]; UCL, read-out: MRSA MIC (UCL)): 4 µg/mL (≈ 13.5 µM)
MIC ([2]; read-out: VRE MIC (UCL)): 16 mg/L (≈ 54.1 µM)
solubility (Aqueous solubility; [12]): 4 µM (≈ 1.18 µg/mL)
fraction unbound [3, 9]: 0.033
microsomal CLint [4, 13]: 168 µL/min/mg
Rat Hep CLint (NEU) ([5]; rat hepatocytes, NEU): 21.9 uL/min/10x6 cells
MRC5 TC50 [6]: 5.45 µM
PMM TC50 [7]: 8 µM
